# Assay results as given in US6187770A, “N-substituted azaheterocyclic compounds” (Novo Nordisk A/S, priority 1998, dated 2001).
# System: histamine induced blood glucose rise
# Assay: Histamine induced hyperglycemia in mice
# Assay type: in vivo
# Conditions: 1.0 mg/kg ip, 30 min before histamine chloride (90 nmol icv); blood glucose at 0 and 40 min; male NMRI mice
# Method: Conscious unfasted 25 g male NMRI mice are administered histamine chloride (90 nmol) icv according to the method of Nishibori et al. (J. Pharmacol. Exp. Therap. 241, […], 1987). Blood glucose is determined at time 0 and 40 min after the histamine injection. Test compounds are administered at 1.0 mg/kg ip 30 min before the histamine injection, and % inhibition refers to the capacity of the compounds to inhibit the histamine induced blood glucose rise.
structure (smiles),measurement,value
"O=C(O)CCN1CCN2c3ccccc3Sc3ccccc3C2C1 (stereo not shown) [Example 4, 3-(1,3,4,14b-Tetrahydro-2H-dibenzo[b,f]pyrazino[1,2-d][1,4]thiazepin-2-yl)-propionic acid]",% inhibition of histamine induced hyperglycemia,48%
